Source: PMC5416783, “Inhibition of homologous phosphorolytic ribonucleases by citrate may represent an evolutionarily conserved communicative link between RNA degradation and central metabolism” (Nucleic Acids Research, 2017)

Legend:
Assay in all cases: end-point exoribonuclease gel assay, […]'-FAM-A20 RNA
Format in all cases: biochemical
[1] = molecular target: T1, S. solfataricus Exosome (SsoExosome) (Saccharolobus solfataricus, UniProt Q9UXC0+Q9UXC2); details: inhibition; 700 nM FAM-A20 RNA, 240 nM enzyme, 3.75 mM MgCl2, phosphate, pH 8, 37 °C, 10 min; control without citrate 4.0 ± 0.5 %
T1 construct: gene rrp41; N-terminal hexahistidine Rrp4 co-expressed with untagged Rrp41 and Rrp42 in E. coli BL21(DE3)pLysS; codon-optimised; trimer of Rrp41/Rrp42 dimers with Rrp4 cap; with Exosome complex component Rrp4
T1 sequence (Q9UXC2 1-248): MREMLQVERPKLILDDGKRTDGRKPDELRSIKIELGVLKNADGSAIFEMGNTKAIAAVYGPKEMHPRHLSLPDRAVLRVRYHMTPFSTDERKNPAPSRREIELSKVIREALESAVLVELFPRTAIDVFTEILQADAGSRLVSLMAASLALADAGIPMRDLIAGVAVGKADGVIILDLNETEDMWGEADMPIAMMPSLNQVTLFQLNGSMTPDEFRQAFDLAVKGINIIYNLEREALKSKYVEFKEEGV
T1 sequence (Q9UXC0 1-275): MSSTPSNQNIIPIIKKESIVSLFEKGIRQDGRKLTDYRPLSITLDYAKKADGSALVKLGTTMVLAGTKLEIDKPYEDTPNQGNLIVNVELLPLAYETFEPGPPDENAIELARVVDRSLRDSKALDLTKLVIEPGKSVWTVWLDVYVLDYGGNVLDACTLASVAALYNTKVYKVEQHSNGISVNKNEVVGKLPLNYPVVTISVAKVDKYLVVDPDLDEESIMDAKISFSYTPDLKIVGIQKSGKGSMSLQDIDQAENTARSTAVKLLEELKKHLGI
T1 sequence (Q9UXC4 1-249 partner): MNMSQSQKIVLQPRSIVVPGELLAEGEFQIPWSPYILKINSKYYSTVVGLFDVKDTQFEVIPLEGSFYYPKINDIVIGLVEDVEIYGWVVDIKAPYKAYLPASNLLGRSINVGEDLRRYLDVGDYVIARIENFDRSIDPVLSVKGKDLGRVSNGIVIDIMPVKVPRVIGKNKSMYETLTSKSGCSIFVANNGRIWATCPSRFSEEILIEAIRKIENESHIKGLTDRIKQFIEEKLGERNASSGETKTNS

[2] = molecular target: T2, E. coli PNPase (EcPNPase) (Escherichia coli, UniProt P05055); details: inhibition; 700 nM FAM-A20 RNA, 240 nM enzyme, 3.75 mM MgCl2, phosphate, pH 8, 37 °C, 10 min; control without citrate 2.2 ± 0.4 %
T2 construct: gene pnp; pET-Duet1_EcPNPase expressed in E. coli BL21(DE3)pLysS; homotrimer
T2 sequence (P05055 1-711): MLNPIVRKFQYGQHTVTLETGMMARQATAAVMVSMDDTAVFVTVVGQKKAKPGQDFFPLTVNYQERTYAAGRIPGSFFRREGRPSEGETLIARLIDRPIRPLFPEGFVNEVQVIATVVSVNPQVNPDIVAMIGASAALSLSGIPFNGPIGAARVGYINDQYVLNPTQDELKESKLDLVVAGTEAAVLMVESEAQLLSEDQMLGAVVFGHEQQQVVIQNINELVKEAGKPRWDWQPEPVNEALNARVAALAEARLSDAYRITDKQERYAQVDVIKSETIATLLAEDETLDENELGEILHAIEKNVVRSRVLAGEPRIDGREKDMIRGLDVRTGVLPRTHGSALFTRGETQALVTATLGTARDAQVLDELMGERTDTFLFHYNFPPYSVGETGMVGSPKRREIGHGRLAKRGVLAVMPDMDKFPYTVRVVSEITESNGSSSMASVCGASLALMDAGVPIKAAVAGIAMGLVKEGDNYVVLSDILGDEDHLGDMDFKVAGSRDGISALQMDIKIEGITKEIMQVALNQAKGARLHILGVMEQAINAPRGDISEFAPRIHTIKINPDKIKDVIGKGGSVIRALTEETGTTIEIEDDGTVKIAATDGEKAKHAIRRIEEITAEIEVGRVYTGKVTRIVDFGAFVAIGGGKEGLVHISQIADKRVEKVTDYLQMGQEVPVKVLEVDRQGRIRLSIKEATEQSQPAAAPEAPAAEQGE

[3] = molecular target: T3, Synechocystis sp. PNPase (SspPNPase) (Synechocystis sp. PCC 6803, UniProt P72659); details: inhibition; 700 nM FAM-A20 RNA, 240 nM enzyme, 3.75 mM MgCl2, phosphate, pH 8, 37 °C, 30 min; control without citrate 2.2 ± 0.2 %
T3 construct: gene pnp; recombinant, commercial (Sigma)
T3 sequence (P72659 1-718): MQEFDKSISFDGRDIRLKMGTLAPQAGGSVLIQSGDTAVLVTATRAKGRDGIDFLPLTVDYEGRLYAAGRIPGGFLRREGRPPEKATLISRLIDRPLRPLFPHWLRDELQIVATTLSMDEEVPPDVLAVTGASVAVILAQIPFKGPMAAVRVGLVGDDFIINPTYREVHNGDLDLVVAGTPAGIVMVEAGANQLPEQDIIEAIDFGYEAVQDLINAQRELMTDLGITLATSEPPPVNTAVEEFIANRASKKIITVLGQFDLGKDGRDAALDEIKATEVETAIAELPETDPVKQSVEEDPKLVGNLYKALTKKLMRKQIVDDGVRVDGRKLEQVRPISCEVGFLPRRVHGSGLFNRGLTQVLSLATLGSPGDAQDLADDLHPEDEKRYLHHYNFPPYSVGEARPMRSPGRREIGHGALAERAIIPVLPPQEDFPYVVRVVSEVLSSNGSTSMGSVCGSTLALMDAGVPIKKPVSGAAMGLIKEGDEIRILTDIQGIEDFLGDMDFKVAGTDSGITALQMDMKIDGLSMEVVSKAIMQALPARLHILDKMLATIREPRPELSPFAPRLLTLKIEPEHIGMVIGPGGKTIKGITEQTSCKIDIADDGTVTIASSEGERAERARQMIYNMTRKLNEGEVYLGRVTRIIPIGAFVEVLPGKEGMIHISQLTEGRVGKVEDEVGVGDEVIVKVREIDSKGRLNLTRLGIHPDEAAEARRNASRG

[4] = molecular target: T4, H. sapiens PNPase (hPNPase) (Homo sapiens, UniProt Q8TCS8); details: inhibition; 700 nM FAM-A20 RNA, 240 nM enzyme, 3.75 mM MgCl2, phosphate, pH 8, 37 °C, 60 min; control without citrate 8.4 ± 2.8 %
T4 construct: gene PNPT1; N-terminal hexahistidine tag (pET-28b), codon-optimised, expressed in E. coli BL21(DE3)pLysS; homotrimer
T4 sequence (Q8TCS8 46-783): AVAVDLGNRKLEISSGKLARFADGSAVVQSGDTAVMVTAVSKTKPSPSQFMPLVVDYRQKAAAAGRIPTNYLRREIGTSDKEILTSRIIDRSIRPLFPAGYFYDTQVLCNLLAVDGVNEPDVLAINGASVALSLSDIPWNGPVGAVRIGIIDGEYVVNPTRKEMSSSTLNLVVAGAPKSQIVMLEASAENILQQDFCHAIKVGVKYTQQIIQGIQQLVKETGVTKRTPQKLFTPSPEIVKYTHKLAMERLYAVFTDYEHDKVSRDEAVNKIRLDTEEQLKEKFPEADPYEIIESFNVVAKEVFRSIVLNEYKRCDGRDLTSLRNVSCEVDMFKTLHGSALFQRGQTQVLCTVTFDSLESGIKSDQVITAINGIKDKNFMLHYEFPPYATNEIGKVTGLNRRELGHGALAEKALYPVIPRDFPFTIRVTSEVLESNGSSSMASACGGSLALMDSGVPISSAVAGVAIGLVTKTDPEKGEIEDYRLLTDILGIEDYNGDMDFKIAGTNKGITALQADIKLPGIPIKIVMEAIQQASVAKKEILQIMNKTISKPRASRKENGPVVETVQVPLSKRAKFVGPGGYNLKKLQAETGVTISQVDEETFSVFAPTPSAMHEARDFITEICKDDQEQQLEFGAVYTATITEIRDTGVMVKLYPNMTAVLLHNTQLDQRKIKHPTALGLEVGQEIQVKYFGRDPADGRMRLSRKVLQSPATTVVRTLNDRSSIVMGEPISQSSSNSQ

## O=C(O)CC(O)(CC(=O)O)C(=O)O [citrate]
[1]
  Percentage substrate remaining at assay end-point / + citrate: 13.6 ± 0.5%
[2]
  Percentage substrate remaining at assay end-point / + citrate: 5.6 ± 1.5%
[3]
  Percentage substrate remaining at assay end-point / + citrate: 6.9 ± 2.2%
[4]
  Percentage substrate remaining at assay end-point / + citrate: 22.8 ± 4.8%
